Tests used:
Assay type in all cases: cell-based
[1] = test system: adipose derived mesenchymal stem cells; test: Adipose tissue derived MSC expansion and cell size with nicotinamide, with or without FGF4; settings: 5 mM NAM, 50 ng/ml FGF4
Procedure: FIG. 15 is a graph illustrating the effect of nicotinamide, with and without FGF4 on adipose-derived MSC proliferation, through 4 passages of culture. Adipose derived mesenchymal stem cells were isolated using collagenase digestion and plastic adherence method, and cultured for several passages with fetal bovine serum. −NAM−FGF4=controls (blue diamonds), +NAM−FGF4=culture with 5 mM NAM (red squares), +NAM+FGF4=culture with 50 ng/ml FGF4 and 5 mM NAM (green triangles). Note the synergic effect of Nicotinamide and FGF4 added together on adipose-derived MSC proliferation; FIG. 16 is a graph detailing the effect of nicotinamide, with and without FGF4 on nucleated cell proliferation in adipose-derived MSC proliferation at passage 4. Adipose-derived mesenchymal stem cells were isolated and cultured as described in FIG. 15. −NAM−FGF4=controls, +NAM−FGF4=culture with 5 mM NAM, +NAM+FGF4=culture with 50 ng/ml FGF4 and 5 mM NAM. […] Cell size was analyzed by Cedex cell counter. −NAM−FGF4=controls, +NAM−FGF4=culture with 5 mM NAM, +NAM+FGF4=culture with 50 ng/ml FGF4 and 5 mM NAM. Note the smaller size of MSC cells grown in the presence of nicotinamide, and even smaller MSCs grown with nicotinamide and FGF4; Proliferation and cell size distribution in adipose-derived mesenchymal stem cells cultured with nicotinamide with or without additional FGF4 was assessed in up to 4 passages of the cultures.

[2] = test system: bone marrow derived mesenchymal stem cells; test: Bone marrow derived MSC seeding and expansion with nicotinamide
Procedure: FIG. 11 is a bar graph illustrating % of BM derived adherent cells expressing mesenchymal stem cells markers in culture seeded +/−NAM, prior to the first passage. Mononuclear cells were isolated from bone marrow using Ficoll and the “plastic adherence” method in the presence or absence of Nicotinamide. Non-adherent cells were washed away 3-4 days later and the media was replaced every 3-4 days. FACS analysis was performed in order to obtain expression levels of surface molecules prior to the first passage (8 days post-seeding). Isolation: Bone marrow derived and adipose tissue derived mesenchymal cells were isolated based on their plastic adherence potential in expansion medium containing: High glucose DMEM and 10% Fetal Bovine Serum (FBS, Hyclone, Logan, Utah, USA) supplemented with 0.05 mg/ml Gentamicin (Sigma) and 2 mM L-glutamine (Biological Industries, Israel). Cells were allowed to adhere for 3-4 days and non-adherent cells were washed out with medium changes. The medium was further exchanged with fresh medium every 3-4 days. Maintenance and expansion: Once adherent cells reached approximately 80-90% confluency, they were detached with 0.25% trypsin-EDTA (Sigma), washed twice in DMEM and 10% Fetal Bovine Serum, with centrifugation, 400 g, 5 minutes, and re-plated at a 1:2 to 1:1000 dilution under the same culture conditions. Measurement of number of cells in culture: Cell number was measured using Cedex Automated Cell Counter (Innovatis). The cells were diluted 1:2 in Trypan Blue (Sigma) and cell number was measured automatically under microscope. Treatment of mesenchymal cultures with nicotinamide: Mesenchymal cultures were initiated as described above, […], or in combination with growth factors or growth factors alone, incubated at 37° C. in a humidified atmosphere of 5% CO2 in air. At each passage and at each medium exchange, the cultures were supplemented with mesenchymal medium, nicotinamide and growth factors.

[3] = test system: Hepatocyte Growth Factor (HGF); test: HGF content of MSC conditioned medium by ELISA; settings: passage 4; 5 mM NAM, 50 ng/ml FGF4; serum- and FGF4-free medium for 24 hours
Excerpt: FIG. 22 is a bar graph illustrating enhancement of Hepatocyte Growth Factor (HGF) content of conditioned medium from nicotinamide and FGF4-treated MSC cultures. Bone marrow mesenchymal stem cells were isolated using Ficoll and plastic adherence method, and cultured for several passages with fetal bovine serum, with added nicotinamide and FGF4 (+NAM+FGF4), with added nicotinamide (+NAM−FGF4) and without added nicotinamide or FGF (−NAM−FGF4). Twenty four hours before passage 4, the media was changed and fresh media without fetal bovine serum or FGF4 was added. The cultured media from passage 4 cultures was collected and assayed for HGF content by ELISA. −NAM, −FGF4=control; +NAM−FGF4=5 mM NAM, +NAM+FGF4=5 mM NAM+50 ng/ml FGF4. Note the significant effect of combined FGF4 and nicotinamide on HGF secretion; Mesenchymal stem cells cultured with nicotinamide and FGF4 have enhanced expansion potential, and maintain an undifferentiated state, compared to mesenchymal stem cells cultured in unsupplemented medium, or mesenchymal stem cells cultured with added nicotinamide alone. In order to assess whether mesenchymal stem cells cultured with nicotinamide or nicotinamide and FGF4 modify the culture medium in a unique manner, secretion of biologically active molecules into the culture medium was measured by ELISA, after depletion of the FGF4 from the medium.

[4] = test system: Transforming Growth Factor-β (TGFβ); test: TGFβ content of MSC conditioned medium by ELISA; settings: passage 4; 5 mM NAM, 50 ng/ml FGF4; serum- and FGF4-free medium for 24 hours
Procedure: FIG. 23 is a bar graph illustrating enhancement of Transforming Growth Factor-β (TGFβ) content of conditioned medium from nicotinamide and FGF4-treated MSC cultures. Bone marrow mesenchymal stem cells were isolated and cultured as in FIG. 22 above. Cultured media was changed to medium without fetal bovine serum or FGF4 24 hours prior to passage 4, collected from the passage 4 cultures and assayed for TGFβ content by ELISA. −NAM, −FGF4=control; +NAM−FGF4=5 mM NAM, +NAM+FGF4=5 mM NAM+50 ng/ml FGF4. Note the significant effect of combined FGF4 and nicotinamide on TGFβ secretion; Mesenchymal stem cells cultured with nicotinamide and FGF4 have enhanced expansion potential, and maintain an undifferentiated state, compared to mesenchymal stem cells cultured in unsupplemented medium, or mesenchymal stem cells cultured with added nicotinamide alone. In order to assess whether mesenchymal stem cells cultured with nicotinamide or nicotinamide and FGF4 modify the culture medium in a unique manner, secretion of biologically active molecules into the culture medium was measured by ELISA, after depletion of the FGF4 from the medium.

NC(=O)c1cccnc1 [nicotinamide, Nicotinamide]
size of the expanded adipose-derived mesenchymal stem cells ([1]; Cedex cell counter): enhanced growth of populations of smaller (less differentiated) cells | adipose derived mesenchymal stem cell expansion in culture ([1]; up to 4 passages): substantially improved | expansion rate of bone marrow derived MSCs ([2]; low concentration of nicotinamide, e.g. 0.1 mM): insignificant effect | MSC doubling time ([2]; nicotinamide added from initiation of culture and at each passage): decreasing doubling time | seeding efficacy (selection) of bone marrow derived MSCs ([2]; seeded with or without nicotinamide): increased the seeding efficacy | HGF level in conditioned medium [3]: elevated levels | TGF-β level in conditioned medium [4]: elevated levels
